What was measured:
[1] = tested on: PBMC from HLA-DQ2+ coeliac subjects; assay: Interferon gamma ELISPOT, hordein 20mer first round library after barley challenge; type: cell-based, human; design: key to individual peptide showing maximal response in a single individual (asterisk): *: an asterisk indicates the eight individual peptides showing maximal response in a single individual; settings: for number of subjects with > 70% maximal response / subjects with at least 40% maximal peptide response: 17 subjects
Experimental: Peptides were initially dissolved in aqueous acetonitrile (50%). Peptides in aqueous acetonitrile were transferred to sterile 96-well plates and diluted in sterile PBS with 1 mM calcium (250 mcg/ml) and then incubated with tTG (25 mcg/ml) (Sigma T5398) for 6 h 37° C. and then stored frozen (−20° C.) until use.
(§1) IFNγ ELISpot assays (Mabtech, Sweden) were performed in 96-well plates (MAIP S-45, Millipore) in which each well contained 25 mcl of peptide solution and 100 mcl of PBMC (2-8×10^5/well) in RPMI containing 10% heat inactivated human AB serum. After development and drying, IFNγ ELISpot plates were assessed using the MAIP automated ELISpot plate counter. Data was then analysed according to a novel algorithm (Expectation Maximization: EM) to define and quantify interferon-gamma responses to 9mer sequences contained within the peptide library (see FIG. 3 and below). 9mer peptides were then rationalised according to an algorithm that assumes redundancy in T-cell recognition, the “IterativeCluster” algorithm (see FIG. 4 and below), by allowing groups of amino acids with similar chemical properties at any one position in the 9mer, or for glutamate to replace glutamine at any position (assuming deamidation may have occurred).
Secalin and hordein 20mer first round peptide libraries were assessed 3 days after completing rye (bread, 100 g/d for 3 days) or barley (boiled, 100 g/d for 3 days) challenge (“day 6” PBMC interferon gamma ELISPOT responses). Although iterative analysis using 2nd and 3rd round peptide libraries to define epitopes has not yet been performed, the 20mers pre-treated with tTG found to induce “potent” responses shared substantial structural similarity to the bioactive peptides identified after wheat challenge. […] The dominant (>70% maximal response) 20mer after rye challenge was usually […] (SEQ ID NO: 1769) (8/14 subjects), or occasionally […] (SEQ ID NO: 1770) (4/14), […] (SEQ ID NO: 1771) (1/14), […] (SEQ ID NO: 1772) (1/14) and/or […] (SEQ ID NO: 1773) (1/14). Additional peptides noted for greater than 40% maximal response in at least 1 subject include:
Typically, the dominant peptides after barley challenge included one of six peptide motifs, or were one of eight other individual 20mers “dominant” in only one of 17 subjects after barley challenge. The six motifs identified:
The barley hordein peptides showing at least 40% maximal peptide response in at least one subject include the following, wherein an asterisk indicates the eight individual peptides showing maximal response in a single individual: […]

[2] = tested on: PBMC from HLA-DQ2+ coeliac subjects; assay: Interferon gamma ELISPOT, second round wheat gliadin and glutenin 16mer library; type: cell-based, human; settings: 16mers pre-treated with transglutaminase, 18 or 28 subjects; for subjects with >70% of maximal peptide-specific response: normalized to individual's maximal response
Excerpt: 12mer peptides were then identified in which each potential deamidation site could be in position 4, 6 or 7 in the 9mer located within HLA-DQ2 binding groove (HLA-DQ2 anchors at these positions show a preference for glutamate). Candidate 12mer core epitope sequences were then flanked with glycine followed by the N-terminal residue present in the parent gliadin polypeptide and at the C-terminal by the C-terminal residue present in the parent gliadin polypeptide followed by glycine (i.e. GXXXXXXXQXXXXXXG (SEQ ID NO: 1936)). […]
as §1
All 2nd round 16mer peptides were assessed in at least 18 subjects. […] All 16mers identified for the second round Oxford library also fulfilled the selection criteria for the Melbourne second round library.
The second round peptide library data was analysed according to the “dominance” of peptide responses in the interferon gamma ELISPOT in individual subjects i.e. the percent response of an individual's PBMC to a specific peptide normalized against that individual's maximal peptide-induced response. Sequences of peptides that stimulated at least 40% of the maximal peptide-specific response in at least one subject are shown in Table 1 below. The dataset supports the consistency and “dominance” of peptides conforming to the sequences identified using the first round 20mer peptide library using the Expectation Maximization (EM) algorithm described above.

Row | Substance | individual peptide showing maximal response in a single individual (asterisk) [1] | number of subjects with > 70% maximal response [1] | subjects with at least 40% maximal peptide response [1] | subjects with 10-40% of maximal peptide-specific response [2] | subjects with 40-70% of maximal peptide-specific response [2] | subjects with <10% of maximal peptide-specific response [2] | subjects with >70% of maximal peptide-specific response [2]
1 | PQQPQQPFPQPQQPFSWQPQ (Description of Artificial Sequence: Synthetic gluten peptide) [barley hordein 20mer] | * | 2 | 6/17 | – | – | – | –
2 | QGSEQIIPQQPQQPFPLQPH (Description of Artificial Sequence: Synthetic gluten peptide) [barley hordein 20mer] | * | 3 | 7/17 | – | – | – | –
3 | WQPQQPFPQPQQPFPLQPQQ (Description of Artificial Sequence: Synthetic gluten peptide) [barley hordein 20mer] | * | 5 | 9/17 | – | – | – | –
4 | PQQPVPQQPQPYPQQPQPFP (Description of Artificial Sequence: Synthetic gluten peptide) [barley hordein 20mer] | – | 1 | 5/17 | – | – | – | –
5 | QSQQQFPQPQQPFPQQPQQP (Description of Artificial Sequence: Synthetic gluten peptide) [barley hordein 20mer] | – | 0 | 1/17 | – | – | – | –
6 | QPFPQPQQPFPWQPQQPFPQ (Description of Artificial Sequence: Synthetic gluten peptide) [barley hordein 20mer] | – | 2 | 10/17 | – | – | – | –
7 | FPQPQEPFPQQPQQPFPLQP (Description of Artificial Sequence: Synthetic gluten peptide) [barley hordein 20mer] | – | 0 | 1/17 | – | – | – | –
8 | VSPHPGQQTTVSPHQGQQTT (Description of Artificial Sequence: Synthetic gluten peptide) [barley hordein 20mer] | * | 1 | 1/17 | – | – | – | –
9 | FPLQPQQPFPQQPQQPFPQQ (Description of Artificial Sequence: Synthetic gluten peptide) [barley hordein 20mer] | – | 0 | 1/17 | – | – | – | –
10 | QQPQPFSQQPIPQQPQPYPQ (Description of Artificial Sequence: Synthetic gluten peptide) [barley hordein 20mer] | – | 8 | 9/17 | – | – | – | –
11 | PQQASPLQPQPQQASPLQPQ (Description of Artificial Sequence: Synthetic gluten peptide) [barley hordein 20mer] | – | 1 | 1/17 | – | – | – | –
12 | QPQQPQPFPQQPVPQQPQPY (Description of Artificial Sequence: Synthetic gluten peptide) [barley hordein 20mer] | – | 2 | 5/17 | – | – | – | –
13 | PFPQQPQQPFPQPQQPFRQQ (Description of Artificial Sequence: Synthetic gluten peptide) [barley hordein 20mer] | – | 3 | 6/17 | – | – | – | –
14 | G-QQPQFSQQQQIPVI-G: wheat 16mer, second round library (PFPQPQQPFPW; Description of Artificial Sequence: Synthetic gluten peptide) | – | – | – | Nil | 1/28 | 17/18 | Nil
15 | G-QPFPWQPQQPFPQQ-G: wheat 16mer, second round library (GQPTPIQPQQPFPQQG; Description of Artificial Sequence: Synthetic gluten peptide) | – | – | – | 8/28 | 2/28 | 18/28 | Nil
16 | YVPPDCSTINVPYANI [wheat 16mer, second round library] | – | – | – | 1/18 | 1/18 | 15/18 | 1/18
17 | VAHAIIMHQQQQQQQE [wheat 16mer, second round library] | – | – | – | 2/28 | 1/28 | 25/28 | Nil
18 | G-IQVDPSGQVQWPQQ-G: wheat 16mer, second round library (GMQADPSGQVQWPQQG; Description of Artificial Sequence: Synthetic gluten peptide) | – | – | – | Nil | Nil | 17/18 | 1/18
19 | LALQTLPAMCNVYIPP [wheat 16mer, second round library] | – | – | – | Nil | Nil | 17/18 | Nil
20 | G-FFPQPQQQFPQPQQ-G: wheat 16mer, second round library (GFPQQPQQQFPQPQQG; Description of Artificial Sequence: Synthetic gluten peptide) | – | – | – | 10/28 | 1/28 | 17/28 | Nil
21 | G-QQPFPQPQQPFPWQ-G: wheat 16mer, second round library | – | – | – | 5/28 | 8/28 | 6/28 | 9/28
22 | G-LQPFPQPQLPFPQP-G: wheat 16mer, second round library (GLQPFPQPQLPFPQPG; Description of Artificial Sequence: Synthetic gluten peptide) | – | – | – | 5/28 | 8/28 | 10/28 | 4/28
23 | G-FPQQPQQQFPQPQQ-G: wheat 16mer, second round library (GQQPFPQPQQQFPQPG; Description of Artificial Sequence: Synthetic gluten peptide) | – | – | – | Nil | 1/28 | 27/28 | Nil
24 | G-LQPFPQPQLPYPQP-G: wheat 16mer, second round library (GLQPFPQPQLPYPQPG; Description of Artificial Sequence: Synthetic gluten peptide) | – | – | – | Nil | 8/28 | 6/28 | 14/28

From patent publication US10105437B2, “Epitopes related to coeliac disease” (BTG International Limited, priority 2004, dated 2018)
